How the values were obtained:
Type in all cases: biochemical
AmpKa1 = biological target: T1, AmpKa1 (Homo sapiens, UniProt Q13131); assay: LabChip (Caliper) kinase assay, AmpKa1; details: read-out: remaining kinase activity (in %) / percentage of inhibition; for inhibition at 0.01 µM: compound at 10 nM; for inhibition at 0.1 µM: compound at 100 nM
T1 construct: purchased Carna Biosciences
Experimental: (§1) The analysis of kinase activity described here was performed using LabChip (Caliper Life Sciences), specifically the Caliper LC3000 and the EZ Reader II instruments.
(§2) The kinase assay used measures the conversion of a fluorescent peptide (substrate) to a phosphorylated product. The reaction mixture, in a microplate well, is introduced by a capillary in a chip where the non-phosphorylated substrate and the phosphorylated product are separated by […]. The intensity of the fluorescent signal over time is related to the reaction progress. The phosphorylated product migrates quicker than the non-phosphorylated substrate and the signals of the two forms of the peptide appear as differentiated peaks. The Caliper determines the peak height and calculates the ratio of product to the peak sum (P/(P+S)). This value is used to compare wells with compounds and wells with controls and thus determine the % of inhibition for the given product.
(§3) The followings kinases were used for the enzymatic inhibition studies, between brackets the value of the Michaelis-Menten constant, Km, of the ATP (Adenosine triphosphate) for each kinase, in μM: obtained from Carna Biosciences: MAPKAPK2 (4.6), AurA (3.6), AurB (5), PKCζ (3.8), RSK1 (23.3), PRAK (5), Erk1 (33.4), PKD2 (32.1), CK1d (16.3), CHK1 (33), ABL (61.7), FYN (36), LYNa (17), CHK2 (57.8), MET (79.5), LCK (28.5), SRC (38), GSK3β (7.3), Erk2 (62.1), PKACα (1.7), AKT2 (186.1), INSR (871.8), p38a (396.5), AKT1(48), MSK1 (21.2), PKCβ2 (84.8), ROCK2 (3.3), PIM2 (4.9), AMPK (38.6), KDR (164.8), IRAK4 (196.5), SGK1 (121.8), SYK (33.5); obtained from Invitrogen: CDK2 (57.6), BTK (123), HGK (80); obtained from Upstate: MST2 (36.6), PKGα (16), PAK2 (1.9), IGF1R (320), FGFR1 (171), MARK1 (33), CAMK2δ (22.4), c-TAK1 (66), DYRK1a (18.1), CaMK4 (3.9), FLT3 (350), c-Raf (6.2), P70S6K (95).
The compounds were dissolved in 100% DMSO and were diluted at 25 times the final concentration desired for the assay. In the case of the determination of Cl50, serial dilutions were made to reach eight concentrations and give rise to the inhibition curve. 1 μL of each concentration is transferred, in duplicate to a 384-well microplate. 12 μL of enzymatic buffer is added to each well containing purified kinase (several suppliers as indicated above), 100 mM HEPES, pH 7.5, 1 mM DTT (Calbiochem), 0.002% Brij-35 (Sigma) and also in presence of 10 mM MgCl2 as cofactor, except for INSR and IRAK4 wherein 10 mM MnCl2 is used instead of MgCl2. For the kinases CAMK26 and CAMK4, 1 mM CaCl2 and 6.7 μg/mL of calmodulin are also added. For KDR kinase, 0.05% of the CHAPSO detergent is added. For the c-Raf kinase, 10 mM MnCl2 is added. For PKCβ2 0.02 μg/mL of PS/PMA is added. For PKGα se 10 μM of cGMP (cyclic guanosine monophosphate) is added. The compound and the enzyme are left for 15 minutes preincubation and, then, the following are added to each well: 12 μL of peptide buffer/ATP containing 100 mM HEPES, pH 7.5, 1.5 μM peptide marker with fluorescein (specific for the corresponding kinase), ATP (at concentration KM), and 0.002% Brij-35 to start the reaction. Generally, the reactions are incubated for 1-1.5 h at ambient temperature to obtain an adequate conversion (15-40%) of the peptide to the phosphorylated product. The reactions were ended by the addition of 45 μL of buffer containing 0 mM EDTA. The microplates were read by the LabChip 3000 using a 12-channel LabChip. The P/(P+S) values were obtained as described above and the CI50 curves were generated using XIfit. […]

FGFR3 = FGFR3 (Homo sapiens, UniProt P22607); assay: LabChip (Caliper) kinase assay, FGFR3; details: read-out: remaining kinase activity (in %) / percentage of inhibition; for inhibition at 0.01 µM: compound at 10 nM; for inhibition at 0.1 µM: compound at 100 nM
Sequence of FGFR3 (P22607 23-806, species assumed): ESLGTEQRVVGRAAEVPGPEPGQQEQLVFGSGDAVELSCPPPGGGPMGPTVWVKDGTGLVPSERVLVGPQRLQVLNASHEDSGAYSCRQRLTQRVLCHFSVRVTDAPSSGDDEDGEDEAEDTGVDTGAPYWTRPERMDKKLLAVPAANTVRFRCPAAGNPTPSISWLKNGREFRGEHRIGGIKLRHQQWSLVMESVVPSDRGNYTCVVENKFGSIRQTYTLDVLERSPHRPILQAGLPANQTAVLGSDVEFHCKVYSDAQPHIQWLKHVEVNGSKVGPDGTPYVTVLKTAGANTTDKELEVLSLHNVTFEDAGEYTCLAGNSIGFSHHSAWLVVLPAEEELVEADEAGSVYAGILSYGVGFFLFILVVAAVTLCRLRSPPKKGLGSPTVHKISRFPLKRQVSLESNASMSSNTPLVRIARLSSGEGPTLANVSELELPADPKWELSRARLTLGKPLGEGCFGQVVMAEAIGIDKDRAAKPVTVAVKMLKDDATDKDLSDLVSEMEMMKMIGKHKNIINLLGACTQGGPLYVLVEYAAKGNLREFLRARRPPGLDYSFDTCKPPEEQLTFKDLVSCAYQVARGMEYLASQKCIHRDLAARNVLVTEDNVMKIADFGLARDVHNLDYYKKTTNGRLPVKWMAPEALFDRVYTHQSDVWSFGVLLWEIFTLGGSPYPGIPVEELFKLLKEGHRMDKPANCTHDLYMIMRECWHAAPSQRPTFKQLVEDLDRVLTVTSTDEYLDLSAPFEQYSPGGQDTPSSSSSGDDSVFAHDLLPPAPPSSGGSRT
Experimental: as §1, §2, §3
(§4) The compounds were dissolved in 100% DMSO and were diluted at 25 times the final concentration desired for the assay. In the case of the determination of Cl50, serial dilutions were made to reach eight concentrations and give rise to the inhibition curve. 1 μL of each concentration is transferred, in duplicate to a 384-well microplate. 12 μL of enzymatic buffer is added to each well containing purified kinase (several suppliers as indicated above), 100 mM HEPES, pH 7.5, 1 mM DTT (Calbiochem), 0.002% Brij-35 (Sigma) and also in presence of 10 mM MgCl2 as cofactor, except for INSR and IRAK4 wherein 10 mM MnCl2 is used instead of MgCl2. For the kinases CAMK26 and CAMK4, 1 mM CaCl2 and 6.7 μg/mL of calmodulin are also added. For KDR kinase, 0.05% of the CHAPSO detergent is added. For the c-Raf kinase, 10 mM MnCl2 is added. For PKCβ2 0.02 μg/mL of PS/PMA is added. For PKGα se 10 μM of cGMP (cyclic guanosine monophosphate) is added. The compound and the enzyme are left for 15 minutes preincubation and, then, the following are added to each well: 12 μL of peptide buffer/ATP containing 100 mM HEPES, pH 7.5, 1.5 μM peptide marker with fluorescein (specific for the corresponding kinase), ATP (at concentration KM), and 0.002% Brij-35 to start the reaction. Generally, the reactions are incubated for 1-1.5 h at ambient temperature to obtain an adequate conversion (15-40%) of the peptide to the phosphorylated product. The reactions were ended by the addition of 45 μL of buffer containing 0 mM EDTA. The microplates were read by the LabChip 3000 using a 12-channel LabChip. The P/(P+S) values were obtained as described above and the CI50 curves were generated using XIfit.
For example, the activity of the Dyrk1a kinase is inhibited in 87% by the compound of formula (III) and completely by the compound of formula (XII) when used at a concentration of 10 nM.

Dyrk1a = biological target: T2, Dyrk1a (Homo sapiens, UniProt Q13627); assay: LabChip (Caliper) kinase assay, Dyrk1a; details: for inhibition at 0.01 µM: compound at 10 nM; for inhibition at 0.01 µM / inhibition at 0.1 µM: read-out: remaining kinase activity (in %) / percentage of inhibition; for inhibition at 0.1 µM: compound at 100 nM; for IC50: ATP at Km, read-out: CI50 (the source's name)
T2 construct: purchased Upstate
Experimental: as §1, §2, §3, §4
Table 9a has the 0150 data obtained in pairs of compound-kinase selected from the compounds of formula (VII), (VIII), (IX), (XVI), (XVII) and (XVIII) after taking inhibition measurements at 100 nM and 10 nM. Those couples that provide >70% of inhibition at 10 nM were consider for measuring its IC50. […]

T1 sequence (Q13131 whole entry): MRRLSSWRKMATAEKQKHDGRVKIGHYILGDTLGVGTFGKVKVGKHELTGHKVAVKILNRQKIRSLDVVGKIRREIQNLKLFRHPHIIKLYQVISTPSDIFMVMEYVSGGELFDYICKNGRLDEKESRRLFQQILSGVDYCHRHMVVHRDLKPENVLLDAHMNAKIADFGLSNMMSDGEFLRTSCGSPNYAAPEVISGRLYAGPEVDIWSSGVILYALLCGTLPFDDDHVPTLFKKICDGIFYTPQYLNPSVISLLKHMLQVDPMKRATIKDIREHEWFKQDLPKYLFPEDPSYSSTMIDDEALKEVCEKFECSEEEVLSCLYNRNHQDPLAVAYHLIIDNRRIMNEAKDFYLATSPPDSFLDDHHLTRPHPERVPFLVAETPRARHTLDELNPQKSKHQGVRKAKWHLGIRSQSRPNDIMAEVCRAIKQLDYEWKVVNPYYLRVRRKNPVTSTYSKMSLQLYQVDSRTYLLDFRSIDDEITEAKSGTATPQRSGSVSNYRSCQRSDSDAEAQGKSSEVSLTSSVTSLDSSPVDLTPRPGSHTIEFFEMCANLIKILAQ
T1 sequence (Q9Y478 whole entry partner): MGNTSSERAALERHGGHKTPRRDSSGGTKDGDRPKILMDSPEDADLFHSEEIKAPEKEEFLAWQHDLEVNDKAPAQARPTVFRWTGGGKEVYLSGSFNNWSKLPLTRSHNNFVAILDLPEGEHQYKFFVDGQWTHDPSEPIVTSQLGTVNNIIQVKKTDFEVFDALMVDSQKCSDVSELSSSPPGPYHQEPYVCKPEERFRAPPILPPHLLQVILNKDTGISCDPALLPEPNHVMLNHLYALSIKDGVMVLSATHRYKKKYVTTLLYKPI
T1 sequence (P54619 whole entry partner): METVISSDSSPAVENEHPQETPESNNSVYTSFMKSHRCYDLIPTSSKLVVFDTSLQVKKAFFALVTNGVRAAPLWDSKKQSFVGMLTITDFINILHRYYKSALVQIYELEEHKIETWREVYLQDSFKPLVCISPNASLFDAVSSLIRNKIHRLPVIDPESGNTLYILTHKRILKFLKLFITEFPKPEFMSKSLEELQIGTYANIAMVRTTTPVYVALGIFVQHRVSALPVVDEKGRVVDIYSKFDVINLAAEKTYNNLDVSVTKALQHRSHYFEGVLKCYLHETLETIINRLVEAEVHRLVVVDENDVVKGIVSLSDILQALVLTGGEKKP

| Structure (SMILES) | inhibition at 0.01 µM (AmpKa1) | inhibition at 0.1 µM (AmpKa1) | inhibition at 0.01 µM (FGFR3) | inhibition at 0.1 µM (FGFR3) | inhibition at 0.01 µM (Dyrk1a) | inhibition at 0.1 µM (Dyrk1a) | IC50 (Dyrk1a) |
| --- | --- | --- | --- | --- | --- | --- | --- |
| C[C@@H]1O[C@@H](n2c3ccccc3c3c4c(c5c6ccccc6[nH]c5c32)CNC4=O)[C@H](O)[C@H](O)[C@H]1O [formula (XII), N^13-1′-β-L-rhamnosyl-k252c] | 1% | 7% | -2% | -1% | 101% | 115% | – |
| C[C@@H]1O[C@@H](n2c3ccccc3c3c4c(c5c6ccccc6[nH]c5c32)C(=O)NC4=O)C[C@H](O)[C@H]1O [formula (IV), N^13-1′-β-L-olivosylarcyriaflavin] | 3% | 21% | -6% | 3% | 32% | 75% | – |
| C[C@H]1O[C@@H](n2c3ccccc3c3c4c(c5c6ccccc6[nH]c5c32)C(=O)NC4=O)C[C@@H](O)[C@@H]1O [formula (VI), N^13-1′-β-D-olivosylarcyriaflavin] | 5% | 33% | -8% | -11% | 62% | 94% | – |
| C[C@@H]1O[C@@H](n2c3ccccc3c3c4c(c5c6ccccc6[nH]c5c32)C(=O)NC4=O)C[C@@H](O)[C@H]1O [formula (V), N^13-1′-β-L-digitoxosylarcyriaflavin] | 8% | 28% | -6% | -1% | 49% | 87% | – |
| C[C@]12O[C@H](C[C@@H](O)[C@H]1O)n1c3ccccc3c3c4c(c5c6ccccc6n2c5c31)CNC4=O [formula (XVIII), N^12-5′(S)-N^13-1′-(R)-L-digitoxosyl-k252c] | – | – | – | – | – | – | > 100 nM |
| C[C@]12O[C@H]([C@H](O)[C@H](O)[C@H]1O)n1c3ccccc3c3c4c(c5c6ccccc6n2c5c31)C(=O)NC4=O [formula (VII), N^12-5′(S)-N^13-1′-(R)-L-rhamnosylarcyriaflavin] | – | – | – | – | – | – | 4 nM |
| C[C@@H]1O[C@@H](n2c3ccccc3c3c4c(c5c6ccccc6[nH]c5c32)C(=O)NC4=O)[C@H](O)[C@H](O)[C@H]1O [formula (III), N^13-1′-β-L-rhamnosylarcyriaflavin] | 1% | 11% | -10% | -4% | 87% | 103% | – |
| C[C@@H]1O[C@@H](n2c3ccccc3c3c4c(c5c6ccccc6[nH]c5c32)CNC4=O)C[C@@H](O)[C@H]1O [formula (XIV), N^13-1′-β-L-digitoxosyl-k252c] | 2% | 1% | -6% | -11% | 15% | 73% | – |
| C[C@H]1O[C@@H](n2c3ccccc3c3c4c(c5c6ccccc6[nH]c5c32)CNC4=O)C[C@@H](O)[C@@H]1O [formula (XV), N^13-1′-β-D-olivosyl-k252c] | -3% | 9% | -20% | -13% | 14% | 50% | – |
| C[C@@H]1O[C@@H](n2c3ccccc3c3c4c(c5c6ccccc6[nH]c5c32)CNC4=O)C[C@H](O)[C@H]1O [formula (XIII), N^13-1′-β-L-olivosyl-k252c] | -3% | 10% | -4% | -6% | 42% | 89% | – |
| C[C@]12O[C@H](C[C@@H](O)[C@H]1O)n1c3ccccc3c3c4c(c5c6ccccc6n2c5c31)C(=O)NC4=O [formula (IX), N^12-5′(S)-N^13-1′-(R)-L-digitoxosylarcyriaflavin] | – | – | – | – | – | – | > 10 nM |

Reference: patent publication US8598132B2, “Glycosylated indolocarbazoles, method for obtaining same and uses thereof” (Universidad de Oviedo, priority 2008, dated 2013)
